The source of these data is paper PMC10285260, “Processive kinetics in the three-step lanosterol 14α-demethylation reaction catalyzed by human cytochrome P450 51A1” (The Journal of Biological Chemistry, 2023).

SMILES strings stand for the structures. “And” between values parts separate entries of the source, which are not always exact repeats. Equal entries are not always repeated.

Series [1] deals with rat liver microsomal systems. Set-up: method as in PMID 3514778. The following applies: rat liver microsomes fortified with cyanide, 2 h; cited from earlier work.
For the next series, the target named is T1, human P450 51A1 (Homo sapiens, UniProt Q16850).
T1 sequence (Q16850 1-509): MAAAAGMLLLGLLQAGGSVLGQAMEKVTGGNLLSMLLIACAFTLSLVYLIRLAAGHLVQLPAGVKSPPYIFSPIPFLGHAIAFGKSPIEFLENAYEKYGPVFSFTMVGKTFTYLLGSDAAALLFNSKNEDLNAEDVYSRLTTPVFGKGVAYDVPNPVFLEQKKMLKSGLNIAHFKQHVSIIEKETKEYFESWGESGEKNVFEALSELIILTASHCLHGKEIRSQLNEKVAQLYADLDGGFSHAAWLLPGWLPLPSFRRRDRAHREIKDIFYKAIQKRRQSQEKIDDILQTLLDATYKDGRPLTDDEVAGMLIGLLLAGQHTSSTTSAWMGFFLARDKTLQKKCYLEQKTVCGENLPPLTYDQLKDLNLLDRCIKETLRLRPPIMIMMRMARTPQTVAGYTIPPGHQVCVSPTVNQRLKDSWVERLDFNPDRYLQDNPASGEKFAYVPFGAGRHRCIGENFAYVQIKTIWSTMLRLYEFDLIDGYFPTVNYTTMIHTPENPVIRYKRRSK
The series can be described thus: Single-turnover rapid-quench kinetics of [3-3H]-dihydrolanosterol oxidation (radio-HPLC). Format: biochemical. The arrangement: made in house; host or cells: Escherichia coli. How it is done:
All products were separated and quantified by radio-HPLC (Fig. S24).
Samples (held at 4 °C) were injected (45 μl) onto a Nova-Pak 3.9 mm × 150 mm (4 μm) octadecylsilane (C18) HPLC column (held at 23 °C). The products were separated at a flow rate of 1.0 ml min^−1 using an isocratic mobile phase composed of CH3CN (only) as was done for the LC-UV assays (above). The eluate from the column was mixed (1:2, v-v) with FlowLogic U scintillation cocktail, and radioactivity (^3H) was detected on a β-RAM Model 5 system (IN/US, LabLogic) (Fig. S24). Product formation was assessed as the relative contribution of each peak (in CPM) to the summed peak area of substrate and product(s).
The single-turnover experiments were performed using a KinTek rapid quench-flow apparatus (KinTek). This machine functions by forcing equal volumes (∼19 μl) of two separate solutions into a central mixing chamber, where the components are allowed to incubate for a predetermined period of time before an excess volume of quench solution (∼160 μl) stops the reaction and expels the mixture from the apparatus. […] After the predetermined incubation period, the reaction (37 °C) was quenched with HCl (1 M), and the mixture (∼200 μl) was collected into vials. The products of five identical reactions (time points) were combined and were extracted into CH2Cl2 (5 ml). An aliquot (4 ml) of the lower (organic) layer was removed into a fresh vial, and the extraction was repeated to maximize sample recovery. The pooled organic fraction (∼8 ml) was brought to dryness under a stream of N2 gas, and the residue was redissolved in 60 μl of CH3OH and transferred to LC vials for analysis.

A short description of series [2]: Estimation of Kd for HPCD-dihydrolanosterol complex (OD450 light scattering). Format: physicochemical. The following applies: pH 7.4, 2% C2H5OH, 23 °C, 16 h; two assays.
Setting [3] is: time 0.05 s, start 7 µM dihydrolanosterol.

On to `CC(C)CCCC(C)[C@H]1CC[C@@]2(C=O)C3=C(CC[C@]12C)[C@@]1(C)CC[C@H](O)C(C)(C)C1CC3` (stereo partly drawn) [14α-CHO dihydrolanosterol, 24,25-dihydro-14α-formyl lanosterol], for which the “accumulation, yield” value in series [1] was roughly 3%. The “concentration in single-turnover reaction” value on human P450 51A1 (setting [3]) turned out to be 0 µM; at human P450 51A1 (time 0.1 s) it was 0.8505 µM; on human P450 51A1 (time 0.15 s), 1.1396 µM; at human P450 51A1 (time 0.2 s) it was 1.6401 µM; at human P450 51A1 (time 0.3 s) it was 1.848 µM; at human P450 51A1 (time 0.4 s), 1.8837 µM. The “concentration in single-turnover reaction” value came out at 1.7976 µM on human P450 51A1 (time 0.6 s); 1.4126 µM on human P450 51A1 (time 0.8 s); 1.4476 µM on human P450 51A1 (time 1 s); 1.3349 µM at human P450 51A1 (time 1.2 s); 0.8218 µM at human P450 51A1 (time 1.6 s); 0.7105 µM at human P450 51A1 (time 2 s). In addition, the “concentration in single-turnover reaction” value at human P450 51A1 (time 3 s), on human P450 51A1 (time 4 s) and on human P450 51A1 (time 7 s) was 0 µM throughout.

For the compound `CC(C)CCCC(C)[C@H]1CC[C@@]2(CO)C3=C(CC[C@]12C)[C@@]1(C)CC[C@H](O)C(C)(C)C1CC3` (stereo partly drawn) [14α-CH2OH dihydrolanosterol, 24,25-dihydro-14α-CH2OH lanosterol], in series [1], the “accumulation, yield” value is roughly 3%. For the same compound, the “concentration in single-turnover reaction” value at human P450 51A1 (setting [3]) was determined as 2.2428 µM; on human P450 51A1 (time 0.1 s), 3.1584 µM; at human P450 51A1 (time 0.15 s) it was 2.7482 µM; at human P450 51A1 (time 0.2 s) it was 2.961 µM; on human P450 51A1 (time 0.3 s) it was 2.3331 µM; on human P450 51A1 (time 0.4 s) it was 1.9978 µM. The “concentration in single-turnover reaction” value on human P450 51A1 (time 0.6 s) is 1.1711 µM; at human P450 51A1 (time 0.8 s), 0.9849 µM; on human P450 51A1 (time 1 s), 0.4431 µM; at human P450 51A1 (time 1.2 s), 0 µM; at human P450 51A1 (time 1.6 s) it was 0 µM; at human P450 51A1 (time 2 s), 0 µM. The “concentration in single-turnover reaction” value on human P450 51A1 (time 3 s), at human P450 51A1 (time 4 s) and at human P450 51A1 (time 7 s) was 0 µM each time.

Take `CC(C)CCCC(C)[C@H]1CC[C@@]2(C)C3=C(CC[C@]12C)[C@@]1(C)CC[C@H](O)C(C)(C)C1CC3` (stereo partly drawn) [dihydrolanosterol, 24,25-dihydrolanosterol]: in series [2], the Kd is 6.4 mM and 6.8 mM. Also, the kobs/Kd at human P450 51A1 (first step, 7 s^−1/0.23 μM) was 3e+07 M⁻¹ s⁻¹. For the same compound, the “fraction of initial material persisting until > 4 s” value at human P450 51A1 (single turnover) is listed as roughly 20%. For the same compound, the “time in which the reaction was completed” value at human P450 51A1 (single turnover) came to 7 s. In addition, the “time of 50% decrease of substrate concentration” value at human P450 51A1 (single turnover) was determined as 0.10 s. In addition, the “first-order exponential decay rate of substrate concentration” value at human P450 51A1 (single turnover, 37 °C) turned out to be 8.7 s⁻¹. Also, the “apparent rate of overall oxidation to dihydro FF-MAS, single exponential fit” value on human P450 51A1 (single turnover, even with the lag) is 0.8 s⁻¹. The “concentration in single-turnover reaction” value on human P450 51A1 (setting [3]) was 4.7572 µM; on human P450 51A1 (time 0.1 s) it was 2.9911 µM; at human P450 51A1 (time 0.15 s) it was 2.8308 µM; at human P450 51A1 (time 0.2 s), 1.974 µM; at human P450 51A1 (time 0.3 s), 2.0671 µM; on human P450 51A1 (time 0.4 s), 1.9166 µM. Also, the “concentration in single-turnover reaction” value on human P450 51A1 (time 0.6 s) came out at 1.5253 µM; on human P450 51A1 (time 0.8 s), 1.5841 µM; at human P450 51A1 (time 1 s) it was 1.0563 µM; at human P450 51A1 (time 1.2 s), 1.1711 µM; at human P450 51A1 (time 1.6 s) it was 1.3601 µM; at human P450 51A1 (time 2 s), 1.0864 µM. Also, the “concentration in single-turnover reaction” value turned out to be 1.1137 µM at human P450 51A1 (time 3 s), 0.3647 µM at human P450 51A1 (time 4 s) and 0 µM at human P450 51A1 (time 7 s).

As a reminder, the Kd is the concentration at which binding is half-saturated.
